Here are results for 15 compounds from patent US12643903B2, “Bifunctional compounds for degradation of EGFR and related methods of use” (BeiGene, Ltd., priority 2020, dated 2026).

Some results are limits rather than exact numbers.

Assay [1] deals with T1, EGFR (Homo sapiens, UniProt P00533, L858R/T790M).
T1 construct: endogenous in cells; host or cells: H1975
Kind of assay: Cell Degradation 1: EGFR degradation in H1975 cells, HTRF assay. Particulars: 16 h treatment, EGFR degradation by HTRF. Type of assay: cell-based. How it is done: After 16 h treatment, add 100 μl 1×lysis buffer to each well; seal the plate and incubate 1 hour at room temperature on a plate shaker; Once the cells are lysed, 16 μL of cell lysate are transferred to a PE 384-well HTRF detection plate; 4 μL of pre-mixed HTRF antibodies are added to each well; Cover the plate with a plate sealer, spin 1000 rpm for 1 min, Incubate overnight at room temperature; Read on BMG PheraStar with HTRF protocol (337 nm-665 nm-620 nm).
(§1) The IC50 (DC50) value of a compound can be obtained by fitting the following equation Y=Bottom+(TOP−Bottom)/(1+((IC50/X)^hillslope))
(§2) Wherein, X and Y are known values, and IC50, Hillslope, Top and Bottom are the parameters obtained by fitting with software. Y is the inhibition percentage (calculated from the equation), X is the concentration of the compound; IC50 is the concentration of the compound when the 50% inhibition is reached. The smaller the IC50 value is, the stronger the inhibitory ability of the compound is. Vice versa, the higher the IC50 value is, the weaker the ability the inhibitory ability of the compound is; Hillslope represents the slope of the fitted curve, generally around 1*; Bottom represents the minimum value of the curve obtained by data fitting, which is generally 0%±20%; Top represents the maximum value of the curve obtained by data fitting, which is generally 100%±20%. The experimental data were fitted by calculating and analyzing with Dotmatics data analysis software.
(In general: In TR-FRET formats the signal depends on donor and acceptor labels being close together.)

The target in assay [2] is T2, EGFR (Homo sapiens, UniProt P00533, DEL746-750).
T2 construct: endogenous in cells; host or cells: HCC827
Briefly: Cell Degradation 2: EGFR degradation in HCC827 cells, HTRF assay. In kind it is cell-based. Particulars: 16 h treatment, EGFR degradation by HTRF. How it is done:
After 16 h treatment, add 100 μl 1×lysis buffer to each well; seal the plate and incubate 1 hour at room temperature on a plate shaker; Once the cells are lysed, 16 μl diluted (2 μL to 14 μl 1× lysisi buffer) cell lysate are transferred to a PE 384-well HTRF detection plate; 4 μL of pre-mixed HTRF antibodies are added to each well; Cover the plate with a plate sealer, spin 1000 rpm for 1 min, Incubate overnight at room temperature; Read on BMG PheraStar with HTRF protocol (337 nm-665 nm-620 nm).
as §1, §2

The DC50 is the concentration at which degradation of the target reaches its halfway point. Lower therefore signals a more potent degrader.

T1 sequence (P00533 25-1210 T790M/L858R): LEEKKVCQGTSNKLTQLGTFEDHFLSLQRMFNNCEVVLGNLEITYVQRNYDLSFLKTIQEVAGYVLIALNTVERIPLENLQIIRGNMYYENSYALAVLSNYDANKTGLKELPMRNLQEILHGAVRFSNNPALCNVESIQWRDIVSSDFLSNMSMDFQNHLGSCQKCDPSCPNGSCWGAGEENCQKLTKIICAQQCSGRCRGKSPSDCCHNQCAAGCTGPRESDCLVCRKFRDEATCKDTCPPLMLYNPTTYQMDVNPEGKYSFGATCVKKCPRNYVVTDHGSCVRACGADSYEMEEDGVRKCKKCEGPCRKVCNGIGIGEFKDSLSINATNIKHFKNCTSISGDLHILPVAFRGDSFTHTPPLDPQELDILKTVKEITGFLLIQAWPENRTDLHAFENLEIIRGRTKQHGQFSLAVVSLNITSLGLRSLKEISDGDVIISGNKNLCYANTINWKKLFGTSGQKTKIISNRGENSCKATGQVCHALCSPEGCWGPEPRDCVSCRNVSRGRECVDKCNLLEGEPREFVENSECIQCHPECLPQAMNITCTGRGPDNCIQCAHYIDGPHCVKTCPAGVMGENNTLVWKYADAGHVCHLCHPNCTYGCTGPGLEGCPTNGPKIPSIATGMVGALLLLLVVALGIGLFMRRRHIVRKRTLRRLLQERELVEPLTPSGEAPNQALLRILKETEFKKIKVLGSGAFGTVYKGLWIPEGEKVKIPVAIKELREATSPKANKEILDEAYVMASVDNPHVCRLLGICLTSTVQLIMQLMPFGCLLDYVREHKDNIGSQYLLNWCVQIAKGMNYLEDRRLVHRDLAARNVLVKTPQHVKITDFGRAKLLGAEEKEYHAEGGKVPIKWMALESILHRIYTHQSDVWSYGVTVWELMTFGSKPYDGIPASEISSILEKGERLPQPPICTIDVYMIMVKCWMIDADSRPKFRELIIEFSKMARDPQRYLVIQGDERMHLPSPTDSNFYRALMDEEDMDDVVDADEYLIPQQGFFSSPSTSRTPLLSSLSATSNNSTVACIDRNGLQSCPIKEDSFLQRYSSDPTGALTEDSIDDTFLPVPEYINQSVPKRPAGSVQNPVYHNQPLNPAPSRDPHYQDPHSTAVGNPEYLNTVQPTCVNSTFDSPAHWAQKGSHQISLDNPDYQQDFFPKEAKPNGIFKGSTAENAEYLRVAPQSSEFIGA
T2 sequence (P00533 with tags, fused parts or gaps DEL746-750): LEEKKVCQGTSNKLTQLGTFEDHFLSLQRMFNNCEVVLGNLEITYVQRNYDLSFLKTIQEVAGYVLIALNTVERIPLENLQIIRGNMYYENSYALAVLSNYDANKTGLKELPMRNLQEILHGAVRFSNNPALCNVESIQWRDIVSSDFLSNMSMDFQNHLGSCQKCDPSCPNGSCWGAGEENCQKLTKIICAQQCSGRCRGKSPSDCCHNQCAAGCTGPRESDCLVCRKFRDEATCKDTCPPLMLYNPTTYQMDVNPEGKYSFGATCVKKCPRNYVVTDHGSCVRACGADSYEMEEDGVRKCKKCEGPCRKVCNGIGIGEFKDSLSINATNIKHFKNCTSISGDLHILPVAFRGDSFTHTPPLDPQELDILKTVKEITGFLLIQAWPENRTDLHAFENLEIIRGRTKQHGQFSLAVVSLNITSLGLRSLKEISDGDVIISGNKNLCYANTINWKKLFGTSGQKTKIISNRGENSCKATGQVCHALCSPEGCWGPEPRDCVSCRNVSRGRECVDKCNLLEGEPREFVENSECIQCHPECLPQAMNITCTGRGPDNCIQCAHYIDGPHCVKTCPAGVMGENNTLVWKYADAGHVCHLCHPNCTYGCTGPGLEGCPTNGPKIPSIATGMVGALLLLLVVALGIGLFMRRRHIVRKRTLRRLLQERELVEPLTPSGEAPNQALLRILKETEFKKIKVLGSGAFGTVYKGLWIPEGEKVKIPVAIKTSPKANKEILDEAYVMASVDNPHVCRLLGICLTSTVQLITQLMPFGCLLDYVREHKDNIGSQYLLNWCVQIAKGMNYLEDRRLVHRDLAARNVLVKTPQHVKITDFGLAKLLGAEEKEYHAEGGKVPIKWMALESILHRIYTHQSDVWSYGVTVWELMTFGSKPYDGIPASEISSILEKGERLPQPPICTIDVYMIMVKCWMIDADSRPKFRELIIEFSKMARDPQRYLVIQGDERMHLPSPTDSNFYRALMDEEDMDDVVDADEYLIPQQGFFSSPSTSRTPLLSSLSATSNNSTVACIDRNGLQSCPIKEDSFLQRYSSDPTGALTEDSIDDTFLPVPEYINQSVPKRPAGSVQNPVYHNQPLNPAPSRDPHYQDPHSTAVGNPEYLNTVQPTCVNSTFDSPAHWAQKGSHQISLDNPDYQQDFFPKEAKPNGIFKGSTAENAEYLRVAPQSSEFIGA
T2 sequence (Q96SW2 whole entry partner): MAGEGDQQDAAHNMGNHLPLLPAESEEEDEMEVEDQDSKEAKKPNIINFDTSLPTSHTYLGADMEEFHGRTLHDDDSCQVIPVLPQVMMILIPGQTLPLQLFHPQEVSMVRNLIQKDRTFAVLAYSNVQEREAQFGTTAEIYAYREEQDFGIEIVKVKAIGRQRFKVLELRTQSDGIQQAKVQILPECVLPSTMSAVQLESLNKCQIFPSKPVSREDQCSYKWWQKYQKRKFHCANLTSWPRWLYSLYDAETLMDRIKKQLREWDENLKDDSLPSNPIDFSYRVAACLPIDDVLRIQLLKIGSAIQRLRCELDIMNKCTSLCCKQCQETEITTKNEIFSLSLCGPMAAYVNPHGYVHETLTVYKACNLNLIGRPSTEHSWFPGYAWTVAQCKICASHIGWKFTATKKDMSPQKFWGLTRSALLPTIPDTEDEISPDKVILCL

In the case of `COc1cc(Nc2nc(Nc3cccc4c3N(S(C)(=O)=O)CC4)c3cc[nH]c3n2)ccc1N1CCC(N2CCN(C(=O)[C@@H]3CCN(c4ccc5c(c4)C(=O)N(C4CCC(=O)NC4=O)C5=O)C3)CC2)CC1` (stereo partly drawn) [Example 75, 2-(2,6-dioxopiperidin-3-yl)-5-((R)-3-(4-(1-(2-methoxy-4-((4-((1-(methylsulfonyl)indolin-7-yl)amino)-7H-pyrrolo[2,3-d]pyrimidin-2-yl)amino)phenyl)piperidin-4-yl)piperazine-1-carbonyl)pyrrolidin-1-yl)isoindoline-1,3-dione], the results for the 50% degradation concentration (DC50) in assay [1] and in assay [2] were 3.9 nM and more than 10000 nM, respectively.

For `CS(=O)(=O)N1CCc2cccc(Nc3nc(Nc4ccc(N5CCC(N6CCN(CC[C@H]7CCN(c8ccc(C9CCC(=O)NC9=O)cc8)C7)CC6)CC5)c(F)c4)nc4[nH]ccc34)c21` (stereo partly drawn) [Example 13, 3-(4-((S)-3-(2-(4-(1-(2-fluoro-4-((4-((1-(methylsulfonyl)indolin-7-yl)amino)-7H-pyrrolo[2,3-d]pyrimidin-2-yl)amino)phenyl)piperidin-4-yl)piperazin-1-yl)ethyl)pyrrolidin-1-yl)phenyl)piperidine-2,6-dione], the DC50 turned out to be 11.1 nM in assay [1] and 29.3 nM in assay [2].

In the case of `CN(CCN1CCN(C2CCN(c3ccc(Nc4nc(Nc5cccc6c5N(S(C)(=O)=O)CC6)c5cc[nH]c5n4)cc3F)CC2)CC1)c1cccc(C2CCC(=O)NC2=O)c1` (stereo not drawn) [Example 6, 3-(3-((2-(4-(1-(2-fluoro-4-((4-((1-(methylsulfonyl)indolin-7-yl)amino)-7H-pyrrolo[2,3-d]pyrimidin-2-yl)amino)phenyl)piperidin-4-yl)piperazin-1-yl)ethyl)(methyl)amino)phenyl)piperidine-2,6-dione], the DC50 in assay [1] turned out to be 7.4 nM; in assay [2], 29.3 nM.

For `CS(=O)(=O)N1CCc2cccc(Nc3nc(Nc4ccc(N5CCN(CCC6CCN(c7ccc(C8CCC(=O)NC8=O)cc7)CC6)CC5)c(F)c4)nc4[nH]ccc34)c21` (stereo not drawn) [Example 27, 3-(4-(4-(2-(4-(2-fluoro-4-((4-((1-(methylsulfonyl)indolin-7-yl)amino)-7H-pyrrolo[2,3-d]pyrimidin-2-yl)amino)phenyl)piperazin-1-yl)ethyl)piperidin-1-yl)phenyl)piperidine-2,6-dione], the DC50 in assay [1] was 10.6 nM; in assay [2], 33.6 nM.

On to `COc1cc(N2CCC(N3CCN(C(=O)CCN4CCN(c5ccc6c(c5)C(=O)N(C5CCC(=O)NC5=O)C6=O)CC4)CC3)CC2)c(C)cc1Nc1ncc(Br)c(Nc2cccc3c2N(S(C)(=O)=O)CC3)n1` (stereo not drawn) [Example 42, 5-(4-(3-(4-(1-(4-((5-bromo-4-((1-(methylsulfonyl)indolin-7-yl)amino)pyrimidin-2-yl)amino)-5-methoxy-2-methylphenyl)piperidin-4-yl)piperazin-1-yl)-3-oxopropyl)piperazin-1-yl)-2-(2,6-dioxopiperidin-3-yl)isoindoline-1,3-dione], for which the DC50 in assay [1] turned out to be 13.5 nM; in assay [2], 4.9 nM.

With `CS(=O)(=O)N1CCc2cccc(Nc3nc(Nc4ccc(N5CCC(N6CCN(CCC7CCN(c8ccc(C9CCC(=O)NC9=O)c(F)c8)CC7)CC6)CC5)c5c4OCC5)ncc3Cl)c21` (stereo not drawn) [Example 51, 3-(4-(4-(2-(4-(1-(7-((5-chloro-4-((1-(methylsulfonyl)indolin-7-yl)amino)pyrimidin-2-yl)amino)-2,3-dihydrobenzofuran-4-yl)piperidin-4-yl)piperazin-1-yl)ethyl)piperidin-1-yl)-2-fluorophenyl)piperidine-2,6-dione], the DC50 in assay [1] stood at 19.5 nM; in assay [2], 12.4 nM.

As to `CS(=O)(=O)N1CCc2cccc(Nc3nc(Nc4ccc(N5CCC(N6CCN(CCc7ccc(C8CCC(=O)NC8=O)c(F)c7F)CC6)CC5)c(F)c4)nc4[nH]ccc34)c21` (stereo not drawn) [Example 69, 3-(2,3-difluoro-4-(2-(4-(1-(2-fluoro-4-((4-((1-(methylsulfonyl)indolin-7-yl)amino)-7H-pyrrolo[2,3-d]pyrimidin-2-yl)amino)phenyl)piperidin-4-yl)piperazin-1-yl)ethyl)phenyl)piperidine-2,6-dione], the half-maximal degradation concentration (DC50) in assay [1] turned out to be 10.8 nM; in assay [2], 29.8 nM.

Regarding `COc1cc(N2CCC(N3CCN(CCC4CCN(c5ccc(C6CCC(=O)NC6=O)c(F)c5)CC4)CC3)CC2)c(C)cc1Nc1ncc(Br)c(Nc2cccc3c2N(S(C)(=O)=O)CC3)n1` (stereo not drawn) [Example 90, 3-(4-(4-(2-(4-(1-(4-((5-bromo-4-((1-(methylsulfonyl)indolin-7-yl)amino)pyrimidin-2-yl)amino)-5-methoxy-2-methylphenyl)piperidin-4-yl)piperazin-1-yl)ethyl)piperidin-1-yl)-2-fluorophenyl)piperidine-2,6-dione], the DC50 in assay [1] was 96.4 nM; in assay [2], 40.2 nM.

For `CN(CCCC1CN(c2ccc3c(c2)C(=O)N(C2CCC(=O)NC2=O)C3=O)C1)C1CCN(c2ccc(Nc3ncc(Cl)c(Nc4cccc5c4N(S(C)(=O)=O)CC5)n3)c3c2CCO3)CC1` (stereo not drawn) [Example 50, 5-(3-(3-((1-(7-((5-chloro-4-((1-(methylsulfonyl)indolin-7-yl)amino)pyrimidin-2-yl)amino)-2,3-dihydrobenzofuran-4-yl)piperidin-4-yl)(methyl)amino)propyl)azetidin-1-yl)-2-(2,6-dioxopiperidin-3-yl)isoindoline-1,3-dione], the DC50 was found to be 7.5 nM in assay [1] and 36.9 nM in assay [2].

With `CN(CCC1CCN(c2ccc(C3CCC(=O)NC3=O)c(F)c2)CC1)C1CCN(c2ccc(Nc3ncc(Cl)c(Nc4cccc5c4N(S(C)(=O)=O)CC5)n3)c3c2CCO3)CC1` (stereo not drawn) [Example 46, 3-(4-(4-(2-((1-(7-((5-chloro-4-((1-(methylsulfonyl)indolin-7-yl)amino)pyrimidin-2-yl)amino)-2,3-dihydrobenzofuran-4-yl)piperidin-4-yl)(methyl)amino)ethyl)piperidin-1-yl)-2-fluorophenyl)piperidine-2,6-dione], the figures for the DC50 in assay [1] and in assay [2] were 23.2 nM and 32.2 nM, respectively.

Regarding `CN(CCC1CCN(c2ccc3c(c2)C(=O)N(C2CCC(=O)NC2=O)C3=O)CC1)C1CCN(c2ccc(Nc3ncc(Cl)c(Nc4cccc5c4N(S(C)(=O)=O)CC5)n3)c3c2CCO3)CC1` (stereo not drawn) [Example 47, 5-(4-(2-((1-(7-((5-chloro-4-((1-(methylsulfonyl)indolin-7-yl)amino)pyrimidin-2-yl)amino)-2,3-dihydrobenzofuran-4-yl)piperidin-4-yl)(methyl)amino)ethyl)piperidin-1-yl)-2-(2,6-dioxopiperidin-3-yl)isoindoline-1,3-dione], the DC50 in assay [1] is 21.4 nM; in assay [2], 13.8 nM.

As to `CS(=O)(=O)N1CCc2cccc(Nc3nc(Nc4ccc(N5CCC(N6CCN(CCCC7CN(c8ccc9c(c8)C(=O)N(C8CCC(=O)NC8=O)C9=O)C7)CC6)CC5)c(F)c4)ncc3Cl)c21` (stereo not drawn) [Example 78, 5-(3-(3-(4-(1-(4-((5-chloro-4-((1-(methylsulfonyl)indolin-7-yl)amino)pyrimidin-2-yl)amino)-2-fluorophenyl)piperidin-4-yl)piperazin-1-yl)propyl)azetidin-1-yl)-2-(2,6-dioxopiperidin-3-yl)isoindoline-1,3-dione], the DC50 in assay [1] is 5.5 nM; in assay [2], 4.6 nM.

Consider `COc1cc(CCN2CCN(C3CCN(c4ccc(Nc5nc(Nc6cccc7c6N(S(C)(=O)=O)CC7)c6cc[nH]c6n5)cc4F)CC3)CC2)ccc1C1CCC(=O)NC1=O` (stereo not drawn) [Example 2, 3-(4-(2-(4-(1-(2-fluoro-4-((4-((1-(methylsulfonyl)indolin-7-yl)amino)-7H-pyrrolo[2,3-d]pyrimidin-2-yl)amino)phenyl)piperidin-4-yl)piperazin-1-yl)ethyl)-2-methoxyphenyl)piperidine-2,6-dione], for which the DC50 in assay [1] was 36.9 nM; in assay [2], 33.4 nM.

As for `CS(=O)(=O)N1CCc2cccc(Nc3nc(Nc4ccc(N5CCC(N6CCN(CCC7CCN(c8ccc9c(c8)C(=O)N(C8CCC(=O)NC8=O)C9=O)CC7)CC6)CC5)c(F)c4)ncc3Cl)c21` (stereo not drawn) [Example 81, 5-(4-(2-(4-(1-(4-((5-chloro-4-((1-(methylsulfonyl)indolin-7-yl)amino)pyrimidin-2-yl)amino)-2-fluorophenyl)piperidin-4-yl)piperazin-1-yl)ethyl)piperidin-1-yl)-2-(2,6-dioxopiperidin-3-yl)isoindoline-1,3-dione], the DC50 was 12.2 nM in assay [1] and 3.4 nM in assay [2].

In the case of `CS(=O)(=O)N1CCc2cccc(Nc3nc(Nc4ccc(N5CCC(N6CCN(C(=O)CC7CCN(c8ccc(C9CCC(=O)NC9=O)cc8)CC7)CC6)CC5)c(F)c4)nc4[nH]ccc34)c21` (stereo not drawn) [Example 12, 3-(4-(4-(2-(4-(1-(2-fluoro-4-((4-((1-(methylsulfonyl)indolin-7-yl)amino)-7H-pyrrolo[2,3-d]pyrimidin-2-yl)amino)phenyl)piperidin-4-yl)piperazin-1-yl)-2-oxoethyl)piperidin-1-yl)phenyl)piperidine-2,6-dione], the DC50 in assay [1] amounted to 12.4 nM; in assay [2], 33.5 nM.
